In the supplement of paper PMC6045584:
± gives the standard deviation of the averaged measurements.

How the values were obtained:
AFATINIB = compound: CN(C)C/C=C/C(=O)Nc1cc2c(Nc3ccc(F)c(Cl)c3)ncnc2cc1O[C@H]1CCOC1 [AFATINIB]; test: surviving fraction relative to DMSO-only wells; higher = less growth inhibition; conditions: exposure time: 5 days
Procedure, shortened: (§1)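 Surviving fraction was calculated by normalising CellTiter-Glo luminescence to the median of DMSO-only wells. Tumour cell lines in log phase were seeded in 384-well plates at 250–500 cells per well, and 24 hours later were exposed continuously for five days to inhibitors at 0.5, 1, 5, 10, 50, 100, 500 and 1000 nM.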

SAPACITABINE = compound: CCCCCCCCCCCCCCCC(=O)Nc1ccn([C@@H]2O[C@H](CO)[C@@H](O)[C@@H]2C#N)c(=O)n1 [SAPACITABINE]; test: as above; conditions: exposure time: 5 days
Procedure, shortened: as §1

Row | Test System | surviving fraction (AFATINIB; 0.5 nM) | surviving fraction (AFATINIB; 1 nM) | surviving fraction (AFATINIB; 5 nM) | surviving fraction (AFATINIB; 10 nM) | surviving fraction (AFATINIB; 50 nM) | surviving fraction (AFATINIB; 100 nM) | surviving fraction (AFATINIB; 500 nM) | surviving fraction (AFATINIB; 1000 nM) | surviving fraction (SAPACITABINE; 0.5 nM) | surviving fraction (SAPACITABINE; 1 nM) | surviving fraction (SAPACITABINE; 5 nM) | surviving fraction (SAPACITABINE; 10 nM) | surviving fraction (SAPACITABINE; 50 nM) | surviving fraction (SAPACITABINE; 100 nM) | surviving fraction (SAPACITABINE; 500 nM) | surviving fraction (SAPACITABINE; 1000 nM)
1 | 22RV1 PROSTATE | 1.03 ± 0.098 | 1.05 ± 0.063 | 1.01 ± 0.037 | 0.977 ± 0.087 | 0.984 ± 0.052 | 0.916 ± 0.028 | 0.737 ± 0.057 | 0.515 ± 0.065 | 0.89 ± 0.094 | 1.06 ± 0.16 | 0.894 ± 0.042 | 0.8687 ± 0.0045 | 0.746 ± 0.12 | 0.692 ± 0.099 | 0.333 ± 0.029 | 0.199 ± 0.034
2 | 93VU HEADNECK | 0.895 ± 0.046 | 0.883 ± 0.053 | 0.697 ± 0.075 | 0.59 ± 0.043 | 0.469 ± 0.085 | 0.46 ± 0.049 | 0.387 ± 0.017 | 0.302 ± 0.022 | 0.75 ± 0.041 | 0.764 ± 0.051 | 0.862 ± 0.059 | 0.849 ± 0.16 | 1.02 ± 0.026 | 0.927 ± 0.049 | 0.74 ± 0.086 | 0.611 ± 0.017
3 | 143B BONE | 1.0165 ± 0.00071 | 1.05 ± 0.011 | 1.0335 ± 0.00071 | 1.02 ± 0.014 | 1.01 ± 0.023 | 1.02 ± 0.02 | 1 ± 0.028 | 0.871 ± 0.11 | 1.03 ± 0.067 | 1.05 ± 0.029 | 1.08 ± 0.069 | 1.06 ± 0.03 | 1.08 ± 0.047 | 1.12 ± 0.098 | 1.05 ± 0.079 | 0.942 ± 0.05
4 | A549 LUNG | 1.02 ± 0.068 | 1.02 ± 0.053 | 0.987 ± 0.05 | 0.965 ± 0.056 | 1.03 ± 0.025 | 1.03 ± 0.019 | 1.04 ± 0.05 | 1.03 ± 0.034 | 0.906 ± 0.026 | 0.906 ± 0.023 | 0.908 ± 0.021 | 0.906 ± 0.013 | 0.87 ± 0.022 | 0.666 ± 0.035 | 0.416 ± 0.001 | 0.308 ± 0.034
5 | ASKA SYNOVIAL | 1.13 ± 0.029 | 1.09 ± 0.035 | 1.15 ± 0.083 | 1.1 ± 0.11 | 1.15 ± 0.029 | 1.14 ± 0.028 | 0.78 ± 0.023 | 0.404 ± 0.023 | 0.917 ± 0.028 | 0.783 ± 0.0061 | 0.865 ± 0.024 | 0.327 ± 0.053 | 0.911 ± 0.043 | 0.688 ± 0.044 | 0.489 ± 0.01 | 0.203 ± 0.014
6 | BT20 BREAST | 1.1 ± 0.22 | 1.03 ± 0.2 | 0.943 ± 0.24 | 0.922 ± 0.15 | 0.909 ± 0.17 | 0.857 ± 0.3 | 1.18 ± 0.3 | 1.28 ± 0.15 | 0.764 ± 0.042 | 0.743 ± 0.021 | 0.679 ± 0.051 | 0.633 ± 0.11 | 0.515 ± 0.028 | 0.396 ± 0.025 | 0.211 ± 0.023 | 0.281 ± 0.051
7 | BT549 BREAST | 1.08 ± 0.1 | 1.12 ± 0.072 | 1.11 ± 0.11 | 1.07 ± 0.2 | 0.919 ± 0.15 | 1.09 ± 0.066 | 0.696 ± 0.15 | 0.278 ± 0.082 | 0.831 ± 0.065 | 0.869 ± 0.068 | 0.809 ± 0.027 | 0.695 ± 0.026 | 0.508 ± 0.022 | 0.367 ± 0.029 | 0.16 ± 0.044 | 0.125 ± 0.034
8 | CAL51 BREAST | 0.97 ± 0.048 | 1.02 ± 0.022 | 1.002 ± 0.0031 | 0.977 ± 0.033 | 1.04 ± 0.019 | 1.02 ± 0.028 | 0.963 ± 0.085 | 0.682 ± 0.06 | 0.878 ± 0.1 | 0.838 ± 0.14 | 0.977 ± 0.074 | 0.929 ± 0.1 | 0.789 ± 0.0083 | 0.533 ± 0.13 | 0.112 ± 0.022 | 0.0657 ± 0.014
9 | CAL72 BONE | 1.09 ± 0.021 | 1.02 ± 0.061 | 1.07 ± 0.018 | 1.06 ± 0.042 | 1.11 ± 0.011 | 1.1 ± 0.036 | 0.984 ± 0.031 | 0.893 ± 0.053 | 0.986 ± 0.07 | 0.951 ± 0.041 | 0.91 ± 0.058 | 0.798 ± 0.13 | 0.559 ± 0.049 | 0.369 ± 0.12 | 0.181 ± 0.039 | 0.128 ± 0.027
10 | CAL120 BREAST | 0.955 ± 0.035 | 0.96 ± 0.0041 | 0.968 ± 0.035 | 0.928 ± 0.013 | 0.908 ± 0.032 | 0.852 ± 0.029 | 0.671 ± 0.01 | 0.471 ± 0.038 | 0.917 ± 0.028 | 0.901 ± 0.047 | 0.893 ± 0.081 | 0.876 ± 0.053 | 0.749 ± 0.06 | 0.631 ± 0.038 | 0.428 ± 0.01 | 0.3798 ± 0.0035
11 | CASKI CERVIX | 0.715 ± 0.055 | 0.522 ± 0.028 | 0.409 ± 0.041 | 0.274 ± 0.015 | 0.259 ± 0.0076 | 0.223 ± 0.006 | 0.049 ± 0.007 | 0.02 ± 0.0017 | 0.804 ± 0.055 | 0.843 ± 0.048 | 0.795 ± 0.026 | 0.746 ± 0.04 | 1.02 ± 0.053 | 0.936 ± 0.036 | 0.45 ± 0.019 | 0.268 ± 0.0036
12 | CHLA90 AUTONOMIC GANGLIA | 0.991 ± 0.042 | 0.981 ± 0.056 | 0.839 ± 0.063 | 0.849 ± 0.077 | 0.819 ± 0.017 | 0.796 ± 0.052 | 0.775 ± 0.051 | 0.593 ± 0.036 | 0.843 ± 0.099 | 0.692 ± 0.038 | 0.797 ± 0.052 | 0.235 ± 0.019 | 0.889 ± 0.092 | 0.755 ± 0.057 | 0.641 ± 0.042 | 0.212 ± 0.038
13 | CME SYNOVIAL | 1.34 ± 0.1 | 1.37 ± 0.18 | 1.33 ± 0.13 | 1.28 ± 0.17 | 1.44 ± 0.19 | 1.32 ± 0.12 | 1.26 ± 0.062 | 0.733 ± 0.066 | 0.788 ± 0.087 | 0.415 ± 0.05 | 0.703 ± 0.091 | 0.027 ± 0.011 | 0.922 ± 0.077 | 0.379 ± 0.075 | 0.248 ± 0.016 | 0.034 ± 0.0076
14 | COLO320DM LARGE INTESTINE | 1.14 ± 0.075 | 1.06 ± 0.088 | 1.08 ± 0.14 | 1.06 ± 0.073 | 1.04 ± 0.083 | 1.04 ± 0.08 | 0.872 ± 0.093 | 0.634 ± 0.037 | 1.01 ± 0.054 | 0.88 ± 0.044 | 1.08 ± 0.043 | 0.386 ± 0.015 | 0.887 ± 0.057 | 0.689 ± 0.0072 | 0.597 ± 0.024 | 0.185 ± 0.0083
15 | DU4475 BREAST | 1.05 ± 0.26 | 1.08 ± 0.31 | 0.851 ± 0.034 | 1.11 ± 0.25 | 1.17 ± 0.15 | 0.997 ± 0.089 | 1.08 ± 0.25 | 0.788 ± 0.042 | 0.637 ± 0.062 | 0.863 ± 0.13 | 0.743 ± 0.051 | 0.699 ± 0.12 | 0.655 ± 0.077 | 0.458 ± 0.049 | 0.16 ± 0.033 | 0.0713 ± 0.018
16 | G292 BONE | 1 ± 0.064 | 0.998 ± 0.029 | 1.07 ± 0.027 | 0.995 ± 0.037 | 1.03 ± 0.02 | 0.982 ± 0.028 | 0.717 ± 0.032 | 0.447 ± 0.027 | 0.947 ± 0.056 | 0.955 ± 0.026 | 0.927 ± 0.059 | 0.899 ± 0.061 | 0.618 ± 0.028 | 0.482 ± 0.012 | 0.326 ± 0.011 | 0.299 ± 0.0036
